Consider eleven molecules from US20170260178A1 (SPERO GYRASE, INC., priority 2012, published 2017).

Values after ≈ are worked out from the molar mass of the structure shown. Bounds are passed on as bounds.

The subject of one test is S. pyogenes (ATCC 51339). Description: Bacterial assay: MIC against S. pyogenes. The following applies: Streptococcus pyogenes, ATCC51339, read-out: minimal inhibitory concentration (MIC). It is filed as cell-based, Streptococcus pyogenes.
A further test concerns S. aureus (ATCC 29213). The test can be described thus: Bacterial assay: MIC against S. aureus. It is filed as cell-based, Staphylococcus aureus. The following applies: Staphylococcus aureus, ATCC29213, read-out: minimal inhibitory concentration (MIC).

With `CCNC(=O)Nc1nc2cc(-c3cnc(C(C)(C)O)nc3)cc(-c3nccc(N4CCN(CCOC)CC4)n3)c2s1` [Compound 107, 1-ethyl-3-[5-[2-(1-hydroxy-1-methyl-ethyl)pyrimidin-5-yl]-7-[4-[4-(2-methoxyethyl)piperazin-1-yl]pyrimidin-2-yl]-1,3-benzothiazol-2-yl]urea], the MIC in the test with S. pyogenes (ATCC 51339) and in the test with S. aureus (ATCC 29213) was no more than 1 µg/mL in each case.
Turning to `CCNC(=O)Nc1nc2cc(-c3cnc(C(C)O)nc3)c(OCC3CCCO3)cc2s1` (stereo not shown) [Compound 193, 1-ethyl-3-[5-[2-[1-hydroxyethyl]pyrimidin-5-yl]-6-(tetrahydrofuran-2-ylmethoxy)-1,3-benzothiazol-2-yl]urea], the MIC with S. pyogenes (ATCC 51339) is 2 µg/mL (≈ 4.51 µM); in the test on S. aureus (ATCC 29213), no more than 1 µg/mL.
In the same order, the values of `CCNC(=O)Nc1nc2cc(-c3cnc(C(C)(C)O)nc3)c(NCCOC)cc2s1` [Compound 150, 1-ethyl-3-[5-[2-(1-hydroxy-1-methyl-ethyl)pyrimidin-5-yl]-6-(2-methoxyethylamino)-1,3-benzothiazol-2-yl]urea] are 8 µg/mL (≈ 18.6 µM) and 2 µg/mL (≈ 4.65 µM).
In the same order, the values of `CCNC(=O)Nc1nc2cc(-c3cnc(C4(O)CCCCC4)nc3)cc(-c3ccccn3)c2s1` [Compound 47, 1-ethyl-3-[5-[2-(1-hydroxycyclohexyl)pyrimidin-5-yl]-7-(2-pyridyl)-1,3-benzothiazol-2-yl]urea] are 8 µg/mL (≈ 16.9 µM) and 8 µg/mL (≈ 16.9 µM).
On to `CCNC(=O)Nc1nc2cc(-c3cnc(C(C)(C)O)nc3)cc(-c3cc(CN4CCCC(F)(F)C4)ccn3)c2s1` [Compound 37, 1-[7-[4-[(3,3-difluoro-1-piperidyl)methyl]-2-pyridyl]-5-[2-(1-hydroxy-1-methyl-ethyl)pyrimidin-5-yl]-1,3-benzothiazol-2-yl]-3-ethyl-urea], for which the MIC in the test with S. pyogenes (ATCC 51339) and with S. aureus (ATCC 29213) was no more than 1 µg/mL each time.
As for `CCNC(=O)Nc1nc2cc(-c3cnc(C(O)C(C)(C)C)nc3)cc(-c3ccccn3)c2s1` (stereo not shown) [Compound 60, 1-ethyl-3-[5-[2-(1-hydroxy-2,2-dimethyl-propyl)pyrimidin-5-yl]-7-(2-pyridyl)-1,3-benzothiazol-2-yl]urea], the MIC in the test on S. pyogenes (ATCC 51339) and with S. aureus (ATCC 29213) was no more than 1 µg/mL in each case.
Turning to `CCNC(=O)Nc1nc2cc(-c3cnc(C(C)(C)O)nc3)c(OCc3ccc(OC)c(OC)c3)cc2s1` [Compound 192, 1-[6-[(3,4-dimethoxyphenyl)methoxy]-5-[2-(1-hydroxy-1-methyl-ethyl)pyrimidin-5-yl]-1,3-benzothiazol-2-yl]-3-ethyl-urea], the MIC in the test with S. pyogenes (ATCC 51339) and in the test with S. aureus (ATCC 29213) was no more than 1 µg/mL each time.
`CCNC(=O)Nc1nc2cc(-c3ccc(C(O)c4nccn4C)nc3)cc(-c3ccccn3)c2s1` (stereo not shown) [Compound 24, 1-ethyl-3-[5-[6-[hydroxy-(1-methylimidazol-2-yl)methyl]-3-pyridyl]-7-(2-pyridyl)-1,3-benzothiazol-2-yl]urea]: the MIC in the test on S. pyogenes (ATCC 51339) and with S. aureus (ATCC 29213) was no more than 1 µg/mL in each case.
On to `CCNC(=O)Nc1nc2cc(-c3cnc(C(C)O)nc3)cc(OCc3ccc(C)nc3)c2s1` (stereo not shown) [Compound 14, 1-ethyl-3-[5-[2-(1-hydroxyethyl)pyrimidin-5-yl]-7-[(6-methyl-3-pyridyl)methoxy]-1,3-benzothiazol-2-yl]urea], for which the MIC in the test with S. pyogenes (ATCC 51339) and with S. aureus (ATCC 29213) was no more than 1 µg/mL each time.
Regarding `CCNC(=O)Nc1nc2cc(-c3cnc(C(C)O)nc3)cc(-c3cc(O)ccn3)c2s1` (stereo not shown) [Compound 90, 1-ethyl-3-[5-[2-(1-hydroxyethyl)pyrimidin-5-yl]-7-(4-hydroxy-2-pyridyl)-1,3-benzothiazol-2-yl]urea], the MIC with S. pyogenes (ATCC 51339) amounted to 2 µg/mL (≈ 4.58 µM); in the test on S. aureus (ATCC 29213) it was 16 µg/mL (≈ 36.7 µM).
`CCNC(=O)Nc1nc2cc(-c3cnc(C(C)(C)O)nc3)cc(-c3cc(N4CCC(C)(C(=O)O)CC4)ccn3)c2s1` [Compound 50, 1-[2-[2-(ethylcarbamoylamino)-5-[2-(1-hydroxy-1-methyl-ethyl)pyrimidin-5-yl]-1,3-benzothiazol-7-yl]-4-pyridyl]-4-methyl-piperidine-4-carboxylic acid]: the MIC in the test on S. pyogenes (ATCC 51339) and in the test on S. aureus (ATCC 29213) was no more than 1 µg/mL each time.
